Assay results: US20250092016A1, “COMPOUNDS AND COMPOSITIONS FOR THE TREATMENT OF CORONAVIRAL RELATED DISEASES” (priority 2021, published 2025)
Read-outs that look alike come from different tables or passages of the source.

Biological target: SARS-CoV-2 main protease (M^pro) (Severe acute respiratory syndrome coronavirus 2, UniProt P0DTD1)
Experiment: Rapid-Fire MS Biochemical Assay measuring Mpro activity (5 nM Mpro)
Settings: Mpro inhibition, 5 μM substrate peptide, 120 min
[1] = Table 1B, read-out: Rapid-Fire Assay IC50
[2] = Rapid-Fire Assay IC50, Table 1B

With N#Cc1cccc(N2C[C@@H](C#N)N(c3cncc4ccccc34)C2=O)c1 (single isomer, unassigned) [Compound 52b] the IC50 [1] was 0.2 to 1 µM.
Cc1ccnc(N2C[C@H](C#N)N(c3cncc4ccccc34)C2=O)n1 (single isomer, unassigned) [Compound 53a] was tested, and the IC50 [1] was 0.2 to 1 µM.
Molecule Cc1ccnc(N2C[C@@H](C#N)N(c3cncc4ccccc34)C2=O)n1 (single isomer, unassigned) [Compound 53b] has an IC50 [1] greater than 1 µM.
For N#C[C@H]1CN(c2cc(Cl)cnn2)C(=O)N1c1cncc2ccccc12 (single isomer, unassigned) [Compound 54a], the IC50 [1] was 0.02 to 0.2 µM.
N#C[C@@H]1CN(c2cc(Cl)cnn2)C(=O)N1c1cncc2ccccc12 (single isomer, unassigned) [Compound 54b] gave an IC50 [1] of 0.2 to 1 µM.
In the case of N#C[C@H]1CN(c2ccc(F)nc2)C(=O)N1c1cncc2ccccc12 (single isomer, unassigned) [Compound 55a], the IC50 [1] is reported as 0.02 to 0.2 µM.
N#C[C@@H]1CN(c2ccc(F)nc2)C(=O)N1c1cncc2ccccc12 (single isomer, unassigned) [Compound 55b] was tested, and the IC50 [1] was greater than 1 µM.
N#C[C@H]1CN(c2ccccc2F)C(=O)N1c1cncc2ccccc12 (single isomer, unassigned) [Compound 56a] was tested, and the IC50 [1] was 0.02 to 0.2 µM.
N#C[C@@H]1CN(c2ccccc2F)C(=O)N1c1cncc2ccccc12 (single isomer, unassigned) [Compound 56b] gave an IC50 [1] greater than 1 µM.
Molecule N#C[C@H]1CN(c2ccnc(C(F)(F)F)c2)C(=O)N1c1cncc2ccccc12 (single isomer, unassigned) [Compound 57a] has an IC50 [1] of less than 0.02 µM.
N#C[C@@H]1CN(c2ccnc(C(F)(F)F)c2)C(=O)N1c1cncc2ccccc12 (single isomer, unassigned) [Compound 57b] was tested, and the IC50 [1] was greater than 1 µM.
COc1cc(Cl)cnc1N1C[C@H](C#N)N(c2cncc3ccccc23)C1=O (single isomer, unassigned) [Compound 58a] showed an IC50 [1] of 0.02 to 0.2 µM.
For COc1cc(Cl)cnc1N1C[C@@H](C#N)N(c2cncc3ccccc23)C1=O (single isomer, unassigned) [Compound 58b], the IC50 [1] was greater than 1 µM.
For N#C[C@H]1CN(c2cc(OC(F)F)ccc2F)C(=O)N1c1cncc2ccccc12 (single isomer, unassigned) [Compound 59a], the IC50 [1] was 0.02 to 0.2 µM.
With N#C[C@@H]1CN(c2cc(OC(F)F)ccc2F)C(=O)N1c1cncc2ccccc12 (single isomer, unassigned) [Compound 59b] the IC50 [1] was greater than 1 µM.
N#Cc1cc(Cl)ccc1N1C[C@H](C#N)N(c2cncc3ccccc23)C1=O (single isomer, unassigned) [Compound 60a] showed an IC50 [1] of less than 0.02 µM.
N#Cc1cc(Cl)ccc1N1C[C@@H](C#N)N(c2cncc3ccccc23)C1=O (single isomer, unassigned) [Compound 60b] showed an IC50 [1] of 0.2 to 1 µM.
For N#C[C@H]1CN(c2cccc(F)n2)C(=O)N1c1cncc2ccccc12 (single isomer, unassigned) [Compound 61a], the IC50 [1] was 0.02 to 0.2 µM.
N#C[C@@H]1CN(c2cccc(F)n2)C(=O)N1c1cncc2ccccc12 (single isomer, unassigned) [Compound 61b] showed an IC50 [1] greater than 1 µM.
With Cc1cnc(C(F)(F)F)nc1N1C[C@H](C#N)N(c2cncc3ccccc23)C1=O (single isomer, unassigned) [Compound 62a] the IC50 [1] was 0.2 to 1 µM.
With Cc1cnc(C(F)(F)F)nc1N1C[C@@H](C#N)N(c2cncc3ccccc23)C1=O (single isomer, unassigned) [Compound 62b] the IC50 [1] was greater than 1 µM.
With N#C[C@H]1CN(c2cccc3cn[nH]c23)C(=O)N1c1cncc2ccccc12 (single isomer, unassigned) [Compound 63a] the IC50 [1] was less than 0.02 µM.
With N#C[C@@H]1CN(c2cccc3cn[nH]c23)C(=O)N1c1cncc2ccccc12 (single isomer, unassigned) [Compound 63b] the IC50 [1] was greater than 1 µM.
Work on CC(C)n1cc(N2C[C@H](C#N)N(c3cncc4ccccc34)C2=O)cn1 (single isomer, unassigned) [Compound 64a] yielded an IC50 [1] of less than 0.02 µM.
CC(C)n1cc(N2C[C@@H](C#N)N(c3cncc4ccccc34)C2=O)cn1 (single isomer, unassigned) [Compound 64b] showed an IC50 [1] greater than 1 µM.
In the case of Cn1cc(N2C[C@H](C#N)N(c3cncc4ccccc34)C2=O)cn1 (single isomer, unassigned) [Compound 65a], the IC50 [1] is reported as 0.02 to 0.2 µM.
Cn1cc(N2C[C@@H](C#N)N(c3cncc4ccccc34)C2=O)cn1 (single isomer, unassigned) [Compound 65b] gave an IC50 [1] greater than 1 µM.
Molecule N#C[C@H]1CN(c2ccc(F)cc2F)C(=O)N1c1cncc2ccccc12 (single isomer, unassigned) [Compound 66a] has an IC50 [1] of less than 0.02 µM.
Molecule N#C[C@@H]1CN(c2ccc(F)cc2F)C(=O)N1c1cncc2ccccc12 (single isomer, unassigned) [Compound 66b] has an IC50 [1] greater than 1 µM.
Cn1ccc(N2C[C@H](C#N)N(c3cncc4ccccc34)C2=O)cc1=O (single isomer, unassigned) [Compound 67a] was tested, and the IC50 [1] was 0.02 to 0.2 µM.
Cn1ccc(N2C[C@@H](C#N)N(c3cncc4ccccc34)C2=O)cc1=O (single isomer, unassigned) [Compound 67b] gave an IC50 [1] greater than 1 µM.
Molecule N#C[C@H]1CN(c2ncc(C(F)(F)F)[nH]2)C(=O)N1c1cncc2ccccc12 (single isomer, unassigned) [Compound 68a] has an IC50 [1] of 0.02 to 0.2 µM.
N#C[C@@H]1CN(c2ncc(C(F)(F)F)[nH]2)C(=O)N1c1cncc2ccccc12 (single isomer, unassigned) [Compound 68b] was tested, and the IC50 [1] was greater than 1 µM.
In the case of CC(C)(O)c1cccc(N2C[C@H](C#N)N(c3cncc4ccccc34)C2=O)c1 (single isomer, unassigned) [Compound 69a], the IC50 [1] is reported as 0.02 to 0.2 µM.
With CC(C)(O)c1cccc(N2C[C@@H](C#N)N(c3cncc4ccccc34)C2=O)c1 (single isomer, unassigned) [Compound 69b] the IC50 [1] was greater than 1 µM.
For Cc1cnc(C(F)(F)F)cc1N1C[C@H](C#N)N(c2cncc3ccccc23)C1=O (single isomer, unassigned) [Compound 70a], the IC50 [1] was less than 0.02 µM.
Cc1cnc(C(F)(F)F)cc1N1C[C@@H](C#N)N(c2cncc3ccccc23)C1=O (single isomer, unassigned) [Compound 70b] gave an IC50 [1] greater than 1 µM.
N#C[C@H]1CN(c2ccc(OC(F)F)cc2)C(=O)N1c1cncc2ccccc12 (single isomer, unassigned) [Compound 71a] showed an IC50 [1] of less than 0.02 µM.
Molecule N#C[C@@H]1CN(c2ccc(OC(F)F)cc2)C(=O)N1c1cncc2ccccc12 (single isomer, unassigned) [Compound 71b] has an IC50 [1] greater than 1 µM.
With N#C[C@H]1CN(c2ccc(F)c(F)c2)C(=O)N1c1cncc2ccccc12 (single isomer, unassigned) [Compound 72a] the IC50 [1] was less than 0.02 µM.
N#C[C@@H]1CN(c2ccc(F)c(F)c2)C(=O)N1c1cncc2ccccc12 (single isomer, unassigned) [Compound 72b] gave an IC50 [1] of 0.2 to 1 µM.
N#Cc1ccc(N2C[C@H](C#N)N(c3cncc4ccccc34)C2=O)cc1F (single isomer, unassigned) [Compound 73a] gave an IC50 [2] of less than 0.02 µM.
N#Cc1ccc(N2C[C@@H](C#N)N(c3cncc4ccccc34)C2=O)cc1F (single isomer, unassigned) [Compound 73b] gave an IC50 [2] of 0.2 to 1 µM.
Cc1ncccc1N1C[C@H](C#N)N(c2cncc3ccccc23)C1=O (single isomer, unassigned) [Compound 74a] gave an IC50 [1] of 0.2 to 1 µM.
Cc1ncccc1N1C[C@@H](C#N)N(c2cncc3ccccc23)C1=O (single isomer, unassigned) [Compound 74b] gave an IC50 [1] greater than 1 µM.
In the case of N#C[C@H]1CN(c2ccc(C(F)F)nc2)C(=O)N1c1cncc2ccccc12 (single isomer, unassigned) [Compound 75a], the IC50 [1] is reported as less than 0.02 µM.
For N#C[C@@H]1CN(c2ccc(C(F)F)nc2)C(=O)N1c1cncc2ccccc12 (single isomer, unassigned) [Compound 75b], the IC50 [1] was greater than 1 µM.
N#C[C@H]1CN(c2cccc(F)c2)C(=O)N1c1cncc2ccccc12 (single isomer, unassigned) [Compound 76a] showed an IC50 [1] of less than 0.02 µM.
N#C[C@@H]1CN(c2cccc(F)c2)C(=O)N1c1cncc2ccccc12 (single isomer, unassigned) [Compound 76b] showed an IC50 [1] greater than 1 µM.
N#C[C@H]1CN(c2cnc(C(F)(F)F)c(F)c2)C(=O)N1c1cncc2ccccc12 (single isomer, unassigned) [Compound 77a] was tested, and the IC50 [1] was less than 0.02 µM.
N#C[C@@H]1CN(c2cnc(C(F)(F)F)c(F)c2)C(=O)N1c1cncc2ccccc12 (single isomer, unassigned) [Compound 77b] gave an IC50 [1] of 0.02 to 0.2 µM.
N#C[C@H]1CN(c2ccc(C(F)F)cn2)C(=O)N1c1cncc2ccccc12 (single isomer, unassigned) [Compound 78a] showed an IC50 [1] of less than 0.02 µM.
N#C[C@@H]1CN(c2ccc(C(F)F)cn2)C(=O)N1c1cncc2ccccc12 (single isomer, unassigned) [Compound 78b] showed an IC50 [1] greater than 1 µM.
Molecule Cc1ncc(N2C[C@H](C#N)N(c3cncc4ccccc34)C2=O)cn1 (single isomer, unassigned) [Compound 79a] has an IC50 [1] of 0.02 to 0.2 µM.
Cc1ncc(N2C[C@@H](C#N)N(c3cncc4ccccc34)C2=O)cn1 (single isomer, unassigned) [Compound 79b] showed an IC50 [1] greater than 1 µM.
Cc1cc(Cl)cnc1N1C[C@H](C#N)N(c2cncc3ccccc23)C1=O (single isomer, unassigned) [Compound 80a] was tested, and the IC50 [1] was 0.02 to 0.2 µM.
Molecule Cc1cc(Cl)cnc1N1C[C@@H](C#N)N(c2cncc3ccccc23)C1=O (single isomer, unassigned) [Compound 80b] has an IC50 [1] greater than 1 µM.
Work on N#C[C@H]1CN(c2ccc(C(F)(F)F)nn2)C(=O)N1c1cncc2ccccc12 (single isomer, unassigned) [Compound 81a] yielded an IC50 [1] of less than 0.02 µM.
Molecule N#C[C@@H]1CN(c2ccc(C(F)(F)F)nn2)C(=O)N1c1cncc2ccccc12 (single isomer, unassigned) [Compound 81b] has an IC50 [1] greater than 1 µM.
Molecule Cc1ccc(C(F)(F)F)nc1N1C[C@H](C#N)N(c2cncc3ccccc23)C1=O (single isomer, unassigned) [Compound 82a] has an IC50 [1] of 0.02 to 0.2 µM.
Work on Cc1ccc(C(F)(F)F)nc1N1C[C@@H](C#N)N(c2cncc3ccccc23)C1=O (single isomer, unassigned) [Compound 82b] yielded an IC50 [1] greater than 1 µM.
Molecule N#C[C@H]1CN(c2ccc(OC(F)F)cc2F)C(=O)N1c1cncc2ccccc12 (single isomer, unassigned) [Compound 83a] has an IC50 [1] of 0.02 to 0.2 µM.
